Data on one compound can be found in article PMC8924334, “Synthesis of [^11C]carbonyl-labeled cyclohexyl (5-(2-acetamidobenzo[d]thiazol-6-yl)-2-methylpyridin-3-yl)carbamate ([^11C-carbonyl]PK68) as a potential PET tracer for receptor-interacting protein 1 kinase” (EJNMMI Radiopharmacy and Chemistry, 2022).

What is called logD is lipophilicity at a set pH, counting ionised and neutral species. High values mean a more lipophilic compound, low ones a more hydrophilic compound.

The nature of series [1]: Lipophilicity (logD), n-octanol/PBS pH 7.4 shake-flask. As to conditions: n-octanol/PBS pH 7.4, room temperature. In kind it is physicochemical. How it is done: An aliquot of 0.65 mL PBS and 0.65 mL n-octanol was removed and weighed, and its radioactivity was determined using an autogamma counter (2480 Wizard^2, Perkin-Elmer, Waltham, MA, USA). Each sample from the remaining organic layer was removed and repartitioned until a consistent logD value was obtained. The logD value was calculated by comparing the ratio of counts per minute (cpm)/g of n-octanol to that of PBS, and is expressed as logD = log[cpm/g (n-octanol)/cpm/g (PBS)]. All measurements were performed in triplicate.

The target of a further series is T1, RIPK1 (Mus musculus, UniProt Q60855).
T1 construct: RIPK1 in liver of healthy mouse would exist with nonnegligible level; from tissue; host or cells: living healthy mice; volumes of interest on heart, lung, liver, kidney, small intestine, muscle and brain
T1 sequence (Q60855 1-656): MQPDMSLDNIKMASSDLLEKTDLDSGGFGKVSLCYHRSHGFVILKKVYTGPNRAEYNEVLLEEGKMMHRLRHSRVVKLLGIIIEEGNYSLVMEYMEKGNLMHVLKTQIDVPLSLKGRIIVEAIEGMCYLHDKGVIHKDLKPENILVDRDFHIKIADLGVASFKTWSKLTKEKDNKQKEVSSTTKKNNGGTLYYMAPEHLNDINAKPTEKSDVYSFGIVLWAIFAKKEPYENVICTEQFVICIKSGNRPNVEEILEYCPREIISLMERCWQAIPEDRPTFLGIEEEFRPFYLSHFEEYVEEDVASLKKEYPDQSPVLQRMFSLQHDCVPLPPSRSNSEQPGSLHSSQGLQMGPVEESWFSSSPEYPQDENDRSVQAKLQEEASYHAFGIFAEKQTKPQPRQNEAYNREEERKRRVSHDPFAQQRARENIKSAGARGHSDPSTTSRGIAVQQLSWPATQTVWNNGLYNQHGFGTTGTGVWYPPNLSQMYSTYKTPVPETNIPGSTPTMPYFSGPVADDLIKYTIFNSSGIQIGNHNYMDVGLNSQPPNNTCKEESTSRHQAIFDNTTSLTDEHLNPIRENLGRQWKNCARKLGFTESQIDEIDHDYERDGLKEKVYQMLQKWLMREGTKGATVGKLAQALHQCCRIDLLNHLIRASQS
Description: Small-animal PET imaging, baseline and blocking with unlabeled PK68. In kind it is in vivo, mice. The method, then:
Each mouse was anesthetized using 1.5% (v/v) isoflurane, and an intravenous catheter was inserted into its tail vein. The mice (10–14 weeks old, 48.1 ± 7.4 g) were subsequently maintained under anesthesia and secured in a custom-designed chamber placed in the center of a small-animal PET scanner (Inveon, Siemens Healthineers, Erlangen, Germany). After adjusting the target position for scanning, dynamic emission scans (in three-dimensional list mode) were performed for 60 min (1 min × 4 frames, 2 min × 8 frames, and 5 min × 8 frames). [^11C]PK68 (11–16 MBq) was injected via a tail vein catheter. The body temperature of each mouse was maintained at 37 °C using a heated (40 °C) water circulation system (T/Pump TP401, Gaymar Industries, NY, USA) during the PET scan. For the blocking study, the mice were pretreated with unlabeled PK68 (1 mg/kg) just before the injection of [^11C]PK68. The obtained dynamic PET images (0.6 mm slice thickness) were reconstructed by filtered-back projection using a Hanning filter, with a Nyquist cutoff of 0.5 cycles per pixel. The time–activity curves (TACs) of [^11C]PK68 were acquired using PMOD software (version 3.4, PMOD Technology, Zurich, Switzerland) from the volumes of interest, which were manually mapped onto the heart, lung, liver, kidney, small-intestine (part of duodenum), muscle, and brain. The radioactivity was decay-corrected to the injection time and is expressed as a standardized uptake value (SUV), normalized for injected radioactivity and body weight. The SUV was calculated according to the following formula: SUV = (radioactivity per milliliter tissue/injected radioactivity) × body weight (g). We also calculated the area under the curve (AUC) using TACs from 0 to 60 min.

Series [2] in a line: Metabolite analysis in plasma and liver. In kind it is in vivo, mice. How it is done:
Following intravenous injection of [^11C]PK68 (37 MBq, 0.1 mL), the mice (8–9 weeks, 40.1 ± 5.3 g) were killed by cervical dislocation at 5, 15, 30, and 60 min. Blood and liver samples were obtained immediately. Each blood sample was centrifuged in a heparinized tube at 15,000 g for 2 min at 4 °C to separate the plasma. The supernatant was collected in a test tube containing CH3CN, and the resulting mixture was vortexed for 15 s, then centrifuged at 15,000 g for 2 min for deproteinization. The resulting supernatant was collected. Each liver sample was homogenized using a Silent Crusher S homogenizer (Rose scientific, Edmonton, Canada) in ice-cooled saline. The resulting homogenate was mixed with an equivalent amount of CH3CN, and centrifuged at 15,000 g for 2 min for deproteinization. An aliquot of the supernatant (0.1–1.0 mL) obtained from the plasma or liver homogenate was injected into the HPLC system with a radioactivity detector, and analyzed using a Capcell Pak C18 column (4.6 mm i.d. × 250 mm, Shiseido) with a mobile phase [CH3CN/H2O/TFA, (45/55/0.1, v/v/v)] at a flow rate of 1.0 mL/min. The percentage ratio of [^11C]PK68 (tR = 5.0 min) to total radioactivity (corrected for decay) on the HPLC chromatogram was calculated as % = (peak area for [^11C]PK68/total peak area) × 100.

[3] abbreviates: blocking with unlabeled PK68 1 mg/kg i.v.

“And” between values parts separate entries of the source, which are not always exact repeats. Identical values can stand only once.

In series [1], `Cc1ncc(-c2ccc3nc(N[11C](C)=O)sc3c2)cc1NC(=O)OC1CCCCC1` [[^11C]PK68, Cyclohexyl (5-(2-[^11C-carbonyl]acetamidobenzo[d]thiazol-6-yl)-2-methylpyridin-3-yl)carbamate] displayed a pH-dependent lipophilicity (logD) of 4. Also, on RIPK1 (baseline), the “peak radioactivity in kidney” value is 2.7 SUV and the “peak radioactivity in liver” value is listed as 4.8 SUV. For the same compound, at RIPK1 (baseline mice, PET, i.v.), the “uptake of radioactivity by the brain” value is given as less than 0.3 SUV. Besides, on RIPK1 (baseline, after injection), the “time of peak radioactivity in kidney” value was 1.5 min and the “time of peak radioactivity in liver” value was found to be 2.5 min. Moreover, at RIPK1 (setting [3]), the “peak radioactivity in kidneys” value is recorded as 2.3 SUV and the “peak radioactivity in liver” value was 4.2 SUV. Also, the “specific binding for RIPK1 in PET imaging” value at RIPK1 (healthy mice) is “no obvious specific binding”. In addition, at RIPK1 (n = 2 per group), the “difference in AUC (0-60 min) in liver and kidney, baseline vs blocking” value is “no significant differences”. The “reduction of maximum SUV in liver and kidney by blocking” value on RIPK1 (unlabeled PK68 1 mg/kg i.v.) is “roughly 15%”. For the same compound, in series [2] (5 min after injection), the “unchanged [11C]PK68 in liver” value turned out to be 85% and the “unchanged [11C]PK68 in plasma” value is recorded as 85%. In series [2] (15 min after injection), the “unchanged [11C]PK68 in liver” value was found to be 67% and the “unchanged [11C]PK68 in plasma” value stood at 66%. Moreover, in series [2] (30 min after injection), the “unchanged [11C]PK68 in liver” value was 68% and the “unchanged [11C]PK68 in plasma” value is 65%. Also, in series [2] (60 min after injection), the “unchanged [11C]PK68 in liver” value is listed as 57%; the “unchanged [11C]PK68 in plasma” value is 57% and > 50%.
